Experiment [1] deals with human peripheral blood mononuclear cells (PBMCs). Put plainly: Inhibition of LPS-induced TNFα production by PBMCs. Type of experiment: cell-based. The conditions noted are these: PBMC, inhibition of LPS-stimulated TNFα production. The protocol:
The effect of test compounds on nuclear factor kappa B (NFκB) activation in cells was assessed by measuring inhibition of tumour necrosis factor alpha (TNFα) production by human peripheral blood mononuclear cells (PBMCs) stimulated by bacterial lipopolysaccharide (LPS).
Human blood (250 ml), anticoagulated with heparin, was collected from healthy volunteers. Aliquots of blood (25 ml) were layered on 20 ml Lymphoprep (Nycomed) in 50 ml polypropylene centrifuge tubes. The tubes were centrifuged (Sorval RT600B) at 2,500 rpm for 30 minutes. The cloudy layer containing PBMCs was collected with a fine tipped Pasteur pipette, transferred into 8 clean polypropylene centrifuge tubes (approximately 10 ml per tube) and diluted to 50 ml with phosphate-buffered saline (PBS). These tubes were centrifuged at 2,000 rpm for 8 minutes. PBS (10 ml) was added to each cell pellet and the cells were gently re-suspended. The cells were pooled in 4 centrifuge tubes, PBS was added to each tube to make the volume up to 50 ml and the tubes were centrifuged at 1,400 rpm for 8 minutes. The cell pellets were again re-suspended in 10 ml PBS, pooled in 2 centrige tubes, the volume made up to 50 ml with PBS and the tubes centrifuged at 900 rpm for 10 minutes.
The final cell pellets were gently re-suspended in 10 ml tissue culture medium (RPMI containing 1% heat-inactivated human serum, L-glutamine and penicillin and streptomycin), combined into 1 tube and the volume made up to 30 ml with RPMI medium. The cells were counted and the cell suspension was diluted to 2.6×10^6 cells/ml.
Test compounds were dissolved in DMSO to 10 mM and diluted 1 in 250 (40 μM) with RPMI medium. The compounds were then serially diluted 1 in 3 with 0.4% DMSO in RPMI medium. Aliquots of test compound dilutions (50 μl) were transferred to the wells of a 96-well plate. Control wells contained 0.4% DMSO in RPMI instead of compound.
Aliquots of the cell suspension (100 μl) were added to each well and the plates incubated at 37° C. for 30 minutes. 50 μl of 40 μg/ml LPS (Sigma, LA130) was added to wells to stimulate TNFα production by the cells and the plates were incubated overnight at 37° C. RPMI medium (50 μl) was added to negative control wells instead of LPS. The final incubation volume was 200 μl.
Plates were centrifuged for 4 minutes at 1,200 rpm and supernatants were removed for measurement of TNFα concentration. Viability of the remaining cell pellet was measured using WST-1 reagent (Boehringer Mannheim, 1044807). […] The absorbance at 450 nm was then measured using a 96-well plate spectrophotometer.
TNFα in the supernatants (freshly harvested or stored frozen at −20° C.) were measured using an enzyme-linked immunosorbant assay (ELISA). […]

The target of the next experiment is T1, IKK-2 (Homo sapiens, UniProt O14920).
T1 sequence (O14920 1-756): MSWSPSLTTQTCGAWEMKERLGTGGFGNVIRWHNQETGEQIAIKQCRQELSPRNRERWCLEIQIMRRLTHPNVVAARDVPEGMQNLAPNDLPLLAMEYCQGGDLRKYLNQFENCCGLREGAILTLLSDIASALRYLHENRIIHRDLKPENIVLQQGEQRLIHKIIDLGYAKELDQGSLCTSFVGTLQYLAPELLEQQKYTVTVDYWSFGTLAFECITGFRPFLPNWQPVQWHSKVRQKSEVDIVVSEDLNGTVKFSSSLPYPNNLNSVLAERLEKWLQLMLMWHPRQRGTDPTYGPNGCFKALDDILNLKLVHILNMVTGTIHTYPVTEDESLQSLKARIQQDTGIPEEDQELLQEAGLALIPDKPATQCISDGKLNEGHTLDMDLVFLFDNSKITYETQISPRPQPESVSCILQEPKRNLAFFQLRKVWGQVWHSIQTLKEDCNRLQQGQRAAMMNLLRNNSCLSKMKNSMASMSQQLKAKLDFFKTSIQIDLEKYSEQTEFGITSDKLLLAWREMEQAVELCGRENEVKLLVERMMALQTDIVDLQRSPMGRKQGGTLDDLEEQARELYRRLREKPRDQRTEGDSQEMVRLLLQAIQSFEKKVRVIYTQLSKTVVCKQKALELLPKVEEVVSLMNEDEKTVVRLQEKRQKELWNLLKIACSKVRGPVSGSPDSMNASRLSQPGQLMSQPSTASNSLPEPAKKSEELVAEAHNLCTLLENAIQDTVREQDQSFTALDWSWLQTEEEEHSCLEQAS
Put plainly: IKK-2 filter kinase assay. Type of experiment: biochemical. The conditions noted are these: 1 μM ATP, 1-53 GST-IκB substrate, read-out: Inhibition of IKK-2 IC50. The protocol: The test compounds were dissolved to 10 mM in dimethylsulphoxide (DMSO). The compounds were then diluted 1 in 40 in kinase buffer (50 mM Tris, pH 7.4 containing 0.1 mM EGTA, 0.1 mM sodium orthovanadate and 0.1% β-mercaptoethanol). 1 in 3 serial dilutions were made from this solution with 2.5% DMSO in kinase buffer. 20 μl of compound dilution was added to wells of a 96 well plate in duplicate.
10 μl of a mixture of magnesium acetate, unlabelled ATP, and ^33P-labelled ATP was added to each well made such that the final concentration was 10 mM magnesium acetate, 1 μM ATP and 0.1 μCi ^33P ATP. […] The final reaction volume was 50 μl.
The kinase reactions were incubated at 21° C. for 80 minutes and the reaction stopped by precipitating the protein by the addition of an equal volume (50 μl) of 20% trichloroacetic acid (TCA). The precipitate was allowed to form for 10 minutes and then filtered onto a GF/C unifilter 96 well plate. Each filter was washed twice with approximately 1 ml 2% TCA. The filter plate was dried at 30-40° C. for 60 minutes, 20 μl scintillant was added to each well and the plate sealed and radioactivity counted on a Packard Topcount microplate scintillation counter.

IC50 data for 4 compounds are collected here from US7572826B2, “Thiophene-carboxamide derivatives and their use as inhibitors of the enzyme IKK-2” (AstraZeneca AB, priority 2003, dated 2009).

Regarding `COCCN(C)Cc1ccc(-c2cc(C(N)=O)c(NC(N)=O)s2)cc1` [Example 56], the values for the half-inhibitory concentration (IC50) (in experiment [1]; on IKK-2) were 450 nM and 66 nM, respectively.
In the case of `NC(=O)Nc1sc(-c2ccc(CN(CCO)Cc3ccccc3)cc2)cc1C(N)=O` [Example 61, 2-[(Aminocarbonyl)amino]-5-[4-{([N-benzyl-N-(2-hydroxyethyl)]amino)methyl}phenyl]thiophene-3-carboxamide], the IC50 (as a rule, the concentration needed to halve the response being measured) in experiment [1] turned out to be 340 nM; at IKK-2, 0.56 nM.
For `CN(C)Cc1ccc(-c2cc(C(N)=O)c(NC(N)=O)s2)cc1` [Example 5, 2-[(Aminocarbonyl)amino]-5-{4-[dimethylaminomethyl]phenyl}thiophene-3-carboxamide], in that order: 120 nM and 13 nM.
For `NC(=O)Nc1sc(-c2ccc(CNCC(F)(F)F)cc2)cc1C(N)=O` [Example 1], in that order: 420 nM and 3.6 nM.
